Assay results taken from ChEMBL document CHEMBL4507278 (2021).

Tests used:
[1] = target: Cyclin-dependent kinase 18 (Homo sapiens) (UniProt Q07002); details: Compound concentration 1000.0 nM
[2] = target: Mitogen-activated protein kinase 3 (Homo sapiens) (UniProt P27361); details: Compound concentration 1000.0 nM
[3] = system: Epidermal growth factor receptor (Homo sapiens), P00533 [G719S]; details: Compound concentration 1000.0 nM
[4] = target: Phosphatidylinositol 4,5-bisphosphate 3-kinase catalytic subunit gamma isoform (Homo sapiens) (UniProt P48736); details: Compound concentration 1000.0 nM
[5] = target: Phosphatidylinositol 4-phosphate 5-kinase type-1 alpha (Homo sapiens) (UniProt Q99755); details: Compound concentration 1000.0 nM
[6] = target: Ribosomal protein S6 kinase alpha-2 (Homo sapiens) (UniProt Q15349); details: Compound concentration 1000.0 nM
[7] = target: Eukaryotic translation initiation factor 2-alpha kinase 1 (Homo sapiens) (UniProt Q9BQI3); details: Compound concentration 1000.0 nM
[8] = target: Mitogen-activated protein kinase kinase kinase 2 (Homo sapiens) (UniProt Q9Y2U5); details: Compound concentration 1000.0 nM
[9] = target: Serine/threonine-protein kinase MRCK gamma (Homo sapiens) (UniProt Q6DT37); details: Compound concentration 1000.0 nM
[10] = target: Beta-adrenergic receptor kinase 1 (Homo sapiens) (UniProt P25098); details: Compound concentration 1000.0 nM
[11] = target: Myotonin-protein kinase (Homo sapiens) (UniProt Q09013); details: Compound concentration 1000.0 nM
[12] = target: Fibroblast growth factor receptor 4 (Homo sapiens) (UniProt P22455); details: Compound concentration 1000.0 nM
[13] = target: 5-hydroxytryptamine receptor 1E (Homo sapiens) (UniProt P28566); details: Compound concentration 10.0 uM
[14] = target: MAP/microtubule affinity-regulating kinase 4 (Homo sapiens) (UniProt Q96L34); details: Compound concentration 1000.0 nM
[15] = target: Cyclin-dependent kinase 11A (Homo sapiens) (UniProt Q9UQ88); details: Compound concentration 1000.0 nM
[16] = target: Serine/threonine-protein kinase 17A (Homo sapiens) (UniProt Q9UEE5); details: Compound concentration 1000.0 nM
[17] = target: Activin receptor type-2B (Homo sapiens) (UniProt Q13705); details: Compound concentration 1000.0 nM
[18] = target: Death-associated protein kinase 2 (Homo sapiens) (UniProt Q9UIK4); details: Compound concentration 1000.0 nM
[19] = system: Serine/threonine-protein kinase B-raf (Homo sapiens), P15056 [V600E]; details: Compound concentration 1000.0 nM
[20] = target: BDNF/NT-3 growth factors receptor (Homo sapiens) (UniProt Q16620); details: Compound concentration 1000.0 nM
[21] = target: Serine/threonine-protein kinase WNK1 (Homo sapiens) (UniProt Q9H4A3); details: Compound concentration 1000.0 nM
[22] = target: Serine/threonine-protein kinase PLK1 (Homo sapiens) (UniProt P53350); details: Compound concentration 1000.0 nM
[23] = target: Serine/threonine-protein kinase 32B (Homo sapiens) (UniProt Q9NY57); details: Compound concentration 1000.0 nM
[24] = system: ALK tyrosine kinase receptor (Homo sapiens), Q9UM73 [L1196M]; details: Compound concentration 1000.0 nM
[25] = system: Receptor-type tyrosine-protein kinase FLT3 (Homo sapiens), P36888 [D835Y]; details: Compound concentration 1000.0 nM
[26] = target: Platelet-derived growth factor receptor beta (Homo sapiens) (UniProt P09619); details: Compound concentration 1000.0 nM
[27] = target: Glycogen synthase kinase-3 alpha (Homo sapiens) (UniProt P49840); details: Compound concentration 1000.0 nM
[28] = target: Inhibitor of nuclear factor kappa-B kinase subunit beta (Homo sapiens) (UniProt O14920); details: Compound concentration 1000.0 nM
[29] = target: Serine/threonine-protein kinase 10 (Homo sapiens) (UniProt O94804); details: Compound concentration 1000.0 nM
[30] = target: Serine/threonine-protein kinase ULK1 (Homo sapiens) (UniProt O75385); details: Compound concentration 1000.0 nM
[31] = target: 5'-AMP-activated protein kinase catalytic subunit alpha-1 (Homo sapiens) (UniProt Q13131); details: Compound concentration 1000.0 nM
[32] = target: Aurora kinase A (Homo sapiens) (UniProt O14965); details: Compound concentration 1000.0 nM
[33] = target: Serine/threonine-protein kinase haspin (Homo sapiens) (UniProt Q8TF76); details: Compound concentration 1000.0 nM
[34] = target: Mitogen-activated protein kinase kinase kinase 7 (Homo sapiens) (UniProt O43318); details: Compound concentration 1000.0 nM
[35] = target: Calcium/calmodulin-dependent protein kinase type II subunit alpha (Homo sapiens) (UniProt Q9UQM7); details: Compound concentration 1000.0 nM
[36] = target: Phosphatidylinositol 3-kinase C2 domain-containing subunit gamma (Homo sapiens) (UniProt O75747); details: Compound concentration 1000.0 nM
[37] = target: Epithelial discoidin domain-containing receptor 1 (Homo sapiens) (UniProt Q08345); details: Compound concentration 1000.0 nM
[38] = target: Casein kinase I isoform epsilon (Homo sapiens) (UniProt P49674); details: Compound concentration 1000.0 nM
[39] = target: Activin receptor type-2A (Homo sapiens) (UniProt P27037); details: Compound concentration 1000.0 nM
[40] = target: MAP/microtubule affinity-regulating kinase 3 (Homo sapiens) (UniProt P27448); details: Compound concentration 1000.0 nM
[41] = target: 1-phosphatidylinositol 3-phosphate 5-kinase (Homo sapiens) (UniProt Q9Y2I7); details: Compound concentration 1000.0 nM
[42] = target: MAP kinase-activated protein kinase 5 (Homo sapiens) (UniProt Q8IW41); details: Compound concentration 1000.0 nM
[43] = target: Mitogen-activated protein kinase kinase kinase 5 (Homo sapiens) (UniProt Q99683); details: Compound concentration 1000.0 nM
[44] = target: Cyclin-dependent kinase-like 3 (Homo sapiens) (UniProt Q8IVW4); details: Compound concentration 1000.0 nM
[45] = target: Serine/threonine-protein kinase VRK2 (Homo sapiens) (UniProt Q86Y07); details: Compound concentration 1000.0 nM

Sequence of Beta-adrenergic receptor kinase 1 (Homo sapiens) (P25098 whole entry): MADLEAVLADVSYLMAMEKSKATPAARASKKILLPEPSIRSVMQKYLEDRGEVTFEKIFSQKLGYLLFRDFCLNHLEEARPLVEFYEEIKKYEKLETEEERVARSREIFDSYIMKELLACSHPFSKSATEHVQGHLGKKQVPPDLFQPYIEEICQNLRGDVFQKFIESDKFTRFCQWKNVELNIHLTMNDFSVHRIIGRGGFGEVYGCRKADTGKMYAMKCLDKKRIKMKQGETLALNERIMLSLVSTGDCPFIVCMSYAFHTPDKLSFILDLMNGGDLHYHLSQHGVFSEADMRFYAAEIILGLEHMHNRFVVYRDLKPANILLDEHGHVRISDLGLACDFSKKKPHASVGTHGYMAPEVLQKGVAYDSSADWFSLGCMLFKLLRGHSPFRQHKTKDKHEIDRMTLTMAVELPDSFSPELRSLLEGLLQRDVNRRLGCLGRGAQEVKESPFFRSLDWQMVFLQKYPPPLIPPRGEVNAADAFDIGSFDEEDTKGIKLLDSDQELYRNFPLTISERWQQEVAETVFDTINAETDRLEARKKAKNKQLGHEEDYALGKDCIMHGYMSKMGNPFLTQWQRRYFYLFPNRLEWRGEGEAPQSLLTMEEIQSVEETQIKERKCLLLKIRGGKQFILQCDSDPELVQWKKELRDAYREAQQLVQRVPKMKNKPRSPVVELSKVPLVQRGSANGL
Sequence of Platelet-derived growth factor receptor beta (Homo sapiens) (P09619 whole entry): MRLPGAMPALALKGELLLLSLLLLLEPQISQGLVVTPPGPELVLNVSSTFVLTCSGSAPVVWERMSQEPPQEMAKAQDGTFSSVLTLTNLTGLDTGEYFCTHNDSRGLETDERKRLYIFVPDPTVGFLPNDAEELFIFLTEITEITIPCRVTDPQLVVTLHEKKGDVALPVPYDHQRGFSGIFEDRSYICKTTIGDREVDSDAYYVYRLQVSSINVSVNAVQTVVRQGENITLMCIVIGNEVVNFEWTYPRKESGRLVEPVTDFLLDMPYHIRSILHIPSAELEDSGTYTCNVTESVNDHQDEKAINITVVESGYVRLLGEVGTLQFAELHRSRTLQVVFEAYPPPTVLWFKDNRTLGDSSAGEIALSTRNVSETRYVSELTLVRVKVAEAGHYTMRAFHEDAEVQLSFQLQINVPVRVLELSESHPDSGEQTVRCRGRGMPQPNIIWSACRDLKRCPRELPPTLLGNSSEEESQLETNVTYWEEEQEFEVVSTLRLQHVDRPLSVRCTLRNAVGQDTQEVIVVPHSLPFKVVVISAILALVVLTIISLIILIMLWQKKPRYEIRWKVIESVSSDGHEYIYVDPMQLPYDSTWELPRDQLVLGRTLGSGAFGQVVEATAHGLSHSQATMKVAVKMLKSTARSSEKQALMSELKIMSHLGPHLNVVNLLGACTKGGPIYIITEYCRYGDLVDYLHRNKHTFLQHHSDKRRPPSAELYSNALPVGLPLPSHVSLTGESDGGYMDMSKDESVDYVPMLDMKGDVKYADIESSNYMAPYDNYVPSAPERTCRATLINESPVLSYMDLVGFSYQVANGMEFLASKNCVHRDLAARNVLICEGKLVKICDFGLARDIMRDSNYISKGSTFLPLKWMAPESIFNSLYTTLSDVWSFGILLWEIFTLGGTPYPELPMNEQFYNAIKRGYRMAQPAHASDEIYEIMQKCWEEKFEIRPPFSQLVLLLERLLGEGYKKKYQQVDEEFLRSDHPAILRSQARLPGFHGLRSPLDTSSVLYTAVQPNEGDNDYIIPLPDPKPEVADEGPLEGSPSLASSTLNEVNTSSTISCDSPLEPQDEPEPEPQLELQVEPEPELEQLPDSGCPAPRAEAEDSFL
Sequence of Glycogen synthase kinase-3 alpha (Homo sapiens) (P49840 2-483 limits assumed): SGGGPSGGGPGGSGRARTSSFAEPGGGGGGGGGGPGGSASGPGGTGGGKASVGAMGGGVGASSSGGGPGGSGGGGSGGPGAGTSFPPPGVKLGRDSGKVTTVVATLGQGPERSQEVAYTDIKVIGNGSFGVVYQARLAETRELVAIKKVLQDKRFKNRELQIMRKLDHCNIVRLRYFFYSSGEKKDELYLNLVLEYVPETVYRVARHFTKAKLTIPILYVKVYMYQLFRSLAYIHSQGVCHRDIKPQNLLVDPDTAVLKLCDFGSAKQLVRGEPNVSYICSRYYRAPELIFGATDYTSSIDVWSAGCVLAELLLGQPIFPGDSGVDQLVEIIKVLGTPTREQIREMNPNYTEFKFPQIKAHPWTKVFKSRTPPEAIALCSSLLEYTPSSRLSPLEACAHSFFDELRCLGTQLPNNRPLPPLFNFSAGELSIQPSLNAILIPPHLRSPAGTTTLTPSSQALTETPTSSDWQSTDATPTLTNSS
Sequence of Serine/threonine-protein kinase B-raf (Homo sapiens), P15056 [V600E] (P15056 whole entry V600E): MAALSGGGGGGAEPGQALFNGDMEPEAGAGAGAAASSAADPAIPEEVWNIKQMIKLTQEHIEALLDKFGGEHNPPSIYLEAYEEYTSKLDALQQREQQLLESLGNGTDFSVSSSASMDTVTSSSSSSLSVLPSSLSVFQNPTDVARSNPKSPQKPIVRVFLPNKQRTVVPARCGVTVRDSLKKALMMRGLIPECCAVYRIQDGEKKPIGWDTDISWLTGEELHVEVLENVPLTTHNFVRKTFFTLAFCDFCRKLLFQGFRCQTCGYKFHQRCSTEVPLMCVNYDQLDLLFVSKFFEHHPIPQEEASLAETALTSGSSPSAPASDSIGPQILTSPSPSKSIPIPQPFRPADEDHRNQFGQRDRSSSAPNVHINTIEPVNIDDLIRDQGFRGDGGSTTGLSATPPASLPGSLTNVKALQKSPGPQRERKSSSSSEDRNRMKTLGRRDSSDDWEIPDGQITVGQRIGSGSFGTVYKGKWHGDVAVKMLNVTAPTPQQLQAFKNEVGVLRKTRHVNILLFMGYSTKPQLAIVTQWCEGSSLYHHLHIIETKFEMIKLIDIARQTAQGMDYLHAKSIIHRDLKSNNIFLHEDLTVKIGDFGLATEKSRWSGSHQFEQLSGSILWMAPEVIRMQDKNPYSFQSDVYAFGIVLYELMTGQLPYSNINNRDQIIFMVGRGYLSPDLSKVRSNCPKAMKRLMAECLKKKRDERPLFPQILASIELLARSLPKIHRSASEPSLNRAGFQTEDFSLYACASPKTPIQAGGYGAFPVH
Sequence of Activin receptor type-2B (Homo sapiens) (Q13705 whole entry): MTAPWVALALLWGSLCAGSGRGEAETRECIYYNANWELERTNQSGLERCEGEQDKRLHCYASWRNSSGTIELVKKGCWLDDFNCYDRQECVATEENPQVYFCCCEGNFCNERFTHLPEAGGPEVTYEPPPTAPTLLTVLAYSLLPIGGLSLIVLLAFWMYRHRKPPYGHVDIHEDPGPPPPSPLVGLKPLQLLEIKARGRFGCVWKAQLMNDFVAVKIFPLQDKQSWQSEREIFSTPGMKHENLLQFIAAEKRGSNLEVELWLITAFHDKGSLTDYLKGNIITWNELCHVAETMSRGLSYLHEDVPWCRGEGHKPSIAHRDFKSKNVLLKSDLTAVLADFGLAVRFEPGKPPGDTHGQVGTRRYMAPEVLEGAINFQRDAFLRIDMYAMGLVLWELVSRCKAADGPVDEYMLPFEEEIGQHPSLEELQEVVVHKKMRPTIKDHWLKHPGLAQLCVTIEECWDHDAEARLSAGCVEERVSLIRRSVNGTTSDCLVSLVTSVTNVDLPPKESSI
Sequence of Phosphatidylinositol 3-kinase C2 domain-containing subunit gamma (Homo sapiens) (O75747 whole entry, the tested form may be a part): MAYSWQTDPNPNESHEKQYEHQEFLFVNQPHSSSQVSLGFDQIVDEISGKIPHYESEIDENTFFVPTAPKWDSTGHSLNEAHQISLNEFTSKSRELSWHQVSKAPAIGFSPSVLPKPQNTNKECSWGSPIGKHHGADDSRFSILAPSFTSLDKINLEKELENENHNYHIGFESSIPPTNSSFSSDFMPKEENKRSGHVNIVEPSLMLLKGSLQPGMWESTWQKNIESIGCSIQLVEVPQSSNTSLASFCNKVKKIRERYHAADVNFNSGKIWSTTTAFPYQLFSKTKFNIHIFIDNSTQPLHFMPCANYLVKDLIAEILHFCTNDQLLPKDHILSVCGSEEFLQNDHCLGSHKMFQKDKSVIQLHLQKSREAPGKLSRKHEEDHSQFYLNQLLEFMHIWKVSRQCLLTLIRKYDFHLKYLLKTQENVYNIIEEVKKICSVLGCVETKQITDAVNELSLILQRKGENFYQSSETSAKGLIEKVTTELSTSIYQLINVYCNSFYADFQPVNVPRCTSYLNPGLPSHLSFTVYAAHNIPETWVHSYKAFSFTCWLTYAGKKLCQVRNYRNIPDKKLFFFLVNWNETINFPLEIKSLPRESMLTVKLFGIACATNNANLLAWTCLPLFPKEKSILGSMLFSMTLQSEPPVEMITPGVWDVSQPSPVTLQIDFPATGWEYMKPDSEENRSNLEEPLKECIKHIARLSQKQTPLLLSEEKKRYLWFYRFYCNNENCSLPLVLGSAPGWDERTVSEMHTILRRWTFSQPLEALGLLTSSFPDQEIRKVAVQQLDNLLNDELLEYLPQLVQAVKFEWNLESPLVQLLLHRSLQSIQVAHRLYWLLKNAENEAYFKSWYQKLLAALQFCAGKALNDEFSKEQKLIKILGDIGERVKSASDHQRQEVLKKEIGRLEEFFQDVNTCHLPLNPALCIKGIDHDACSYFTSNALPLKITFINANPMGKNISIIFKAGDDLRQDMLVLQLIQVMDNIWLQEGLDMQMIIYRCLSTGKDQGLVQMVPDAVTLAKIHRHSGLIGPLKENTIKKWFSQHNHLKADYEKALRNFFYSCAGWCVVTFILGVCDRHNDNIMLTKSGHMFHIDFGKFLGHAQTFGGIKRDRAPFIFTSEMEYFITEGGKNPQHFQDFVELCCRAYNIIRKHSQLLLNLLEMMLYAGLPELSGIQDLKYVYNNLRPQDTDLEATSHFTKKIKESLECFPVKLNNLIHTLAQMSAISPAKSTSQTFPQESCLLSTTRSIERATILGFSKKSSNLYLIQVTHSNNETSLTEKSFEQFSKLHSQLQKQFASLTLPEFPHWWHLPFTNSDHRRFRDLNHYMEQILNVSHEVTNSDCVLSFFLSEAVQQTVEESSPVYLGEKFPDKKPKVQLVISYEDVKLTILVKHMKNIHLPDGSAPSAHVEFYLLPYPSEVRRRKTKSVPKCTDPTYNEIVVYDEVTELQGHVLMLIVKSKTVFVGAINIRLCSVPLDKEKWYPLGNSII

Molecule `CS(=O)(=O)c1cc(C2(NC(=O)c3cncc4c3cnn4-c3ccc(F)cc3)CC2)ccn1` [BI 639667] has a residual activity [1] of 100%, a residual activity [2] of 100% and a residual activity [3] of 100%. It also gave a residual activity [4] of 82%, a residual activity [5] of 100% and a residual activity [6] of 88%. The residual activity [7] was 73%, the residual activity [8] was 84% and the residual activity [9] was 100%. For the same molecule, the residual activity [10] was 48%, the residual activity [11] was 99% and the residual activity [12] was 74%. The inhibition [13] was 14.8%, the residual activity [14] was 100% and the residual activity [15] was 99%. For the same molecule, the residual activity [16] was 84%, the residual activity [17] was 100% and the residual activity [18] was 96%. It also gave a residual activity [19] of 94%, a residual activity [20] of 91% and a residual activity [21] of 100%. The residual activity [22] was 90%, the residual activity [23] was 100% and the residual activity [24] was 100%. It also gave a residual activity [25] of 98%, a residual activity [26] of 93% and a residual activity [27] of 70%. It also gave a residual activity [28] of 100%, a residual activity [29] of 99% and a residual activity [30] of 100%. For the same molecule, the residual activity [31] was 99%, the residual activity [32] was 89% and the residual activity [33] was 90%. It also gave a residual activity [34] of 94%, a residual activity [35] of 100% and a residual activity [36] of 93%. The residual activity [37] was 100%, the residual activity [38] was 84% and the residual activity [39] was 98%. For the same molecule, the residual activity [40] was 100%, the residual activity [41] was 79% and the residual activity [42] was 87%. The residual activity [43] was 97%, the residual activity [44] was 96% and the residual activity [45] was 100%.
Work on `CS(=O)(=O)NCC[C@H](NC(=O)c1cncc2c1cnn2-c1ccc(F)cc1)c1ccnc(S(C)(=O)=O)c1` [BI 9307] yielded a residual activity [1] of 100%, a residual activity [2] of 97% and a residual activity [3] of 75%. It also gave a residual activity [4] of 80%, a residual activity [5] of 100% and a residual activity [6] of 100%. The residual activity [7] was 100%, the residual activity [8] was 100% and the residual activity [9] was 100%. For the same molecule, the residual activity [10] was 100%, the residual activity [11] was 100% and the residual activity [12] was 100%. It also gave an inhibition [13] of 8.79%, a residual activity [14] of 78% and a residual activity [15] of 100%. For the same molecule, the residual activity [16] was 100%, the residual activity [17] was 90% and the residual activity [18] was 100%. For the same molecule, the residual activity [19] was 100%, the residual activity [20] was 100% and the residual activity [21] was 100%. For the same molecule, the residual activity [22] was 100%, the residual activity [23] was 67% and the residual activity [24] was 100%. The residual activity [25] was 97%, the residual activity [26] was 100% and the residual activity [27] was 100%. The residual activity [28] was 89%, the residual activity [29] was 100% and the residual activity [30] was 100%. The residual activity [31] was 100%, the residual activity [32] was 100% and the residual activity [33] was 100%. The residual activity [34] was 100%, the residual activity [35] was 100% and the residual activity [36] was 86%. It also gave a residual activity [37] of 92%, a residual activity [38] of 100% and a residual activity [39] of 81%. For the same molecule, the residual activity [40] was 92%, the residual activity [41] was 76% and the residual activity [42] was 100%. For the same molecule, the residual activity [43] was 96%, the residual activity [44] was 99% and the residual activity [45] was 100%.
